Results published in ChEMBL document CHEMBL1671815, “A practical use of ligand efficiency indices out of the fragment-based approach: ligand efficiency-guided lead identification of soluble epoxide hydrolase inhibitors” (J Med Chem, 2011).

Tests used:
[1] = Aqueous solubility of the compound at pH 7.4; format: physicochemical
[2] = biological target: T1, Bifunctional epoxide hydrolase 2 (Rattus norvegicus, UniProt P80299); experiment: Inhibition of rat soluble epoxide hydrolase in cell free system
T1 sequence (P80299 whole entry): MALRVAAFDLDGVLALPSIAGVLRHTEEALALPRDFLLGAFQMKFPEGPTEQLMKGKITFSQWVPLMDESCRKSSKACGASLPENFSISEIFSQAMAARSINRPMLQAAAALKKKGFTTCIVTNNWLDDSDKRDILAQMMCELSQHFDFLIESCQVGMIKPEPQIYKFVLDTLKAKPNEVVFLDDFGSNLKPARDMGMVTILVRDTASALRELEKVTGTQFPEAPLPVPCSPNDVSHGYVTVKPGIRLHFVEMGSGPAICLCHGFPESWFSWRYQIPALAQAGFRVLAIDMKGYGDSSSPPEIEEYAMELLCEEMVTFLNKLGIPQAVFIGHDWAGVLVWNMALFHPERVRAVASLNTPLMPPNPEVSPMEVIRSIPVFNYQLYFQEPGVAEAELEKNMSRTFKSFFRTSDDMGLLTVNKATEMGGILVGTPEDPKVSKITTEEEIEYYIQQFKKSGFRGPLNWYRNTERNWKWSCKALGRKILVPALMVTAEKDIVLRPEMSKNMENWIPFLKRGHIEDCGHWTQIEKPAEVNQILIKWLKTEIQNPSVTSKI

Cytochrome P450 2C19 = Cytochrome P450 2C19 (Homo sapiens, UniProt P33261); experiment: Inhibition of CYP2C19; format: ADME
[3] = biological target: T2, Bifunctional epoxide hydrolase 2 (Homo sapiens, UniProt P34913); experiment: Inhibition of human soluble epoxide hydrolase in cell free system
T2 sequence (P34913 whole entry): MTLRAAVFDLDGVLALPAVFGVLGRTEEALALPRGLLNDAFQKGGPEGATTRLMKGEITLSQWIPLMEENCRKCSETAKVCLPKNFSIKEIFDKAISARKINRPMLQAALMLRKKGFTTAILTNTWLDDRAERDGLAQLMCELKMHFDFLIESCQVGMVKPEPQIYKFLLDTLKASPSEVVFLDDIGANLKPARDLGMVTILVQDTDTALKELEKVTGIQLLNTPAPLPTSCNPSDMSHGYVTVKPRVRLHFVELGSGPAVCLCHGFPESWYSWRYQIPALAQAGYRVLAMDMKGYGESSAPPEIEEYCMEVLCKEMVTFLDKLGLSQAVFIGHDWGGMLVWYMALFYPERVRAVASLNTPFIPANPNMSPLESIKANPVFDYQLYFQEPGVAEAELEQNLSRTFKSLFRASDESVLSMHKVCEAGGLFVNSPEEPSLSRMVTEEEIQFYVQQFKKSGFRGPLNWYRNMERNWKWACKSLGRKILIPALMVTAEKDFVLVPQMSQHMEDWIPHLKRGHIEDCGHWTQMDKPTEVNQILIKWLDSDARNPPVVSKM

HepG2 = experiment: Cytotoxicity against human HepG2 cells up to 100 uM; format: cell-based
Liver microsomes [4] = experiment: Intrinsic clearance in rat liver microsome measured per mg of protein; format: ADME
[5] = biological target: T2, Bifunctional epoxide hydrolase 2; experiment: Inhibition of soluble epoxide hydrolase in human HepG2 cells after 30 mins; format: cell-based
Liver microsomes [6] = experiment: Intrinsic clearance in human liver microsome measured per mg of protein; format: ADME
Cytochrome P450 1A2 = biological target: T3, Cytochrome P450 1A2 (Homo sapiens, UniProt P05177); experiment: Inhibition of CYP1A2; format: ADME
T3 sequence (P05177 whole entry): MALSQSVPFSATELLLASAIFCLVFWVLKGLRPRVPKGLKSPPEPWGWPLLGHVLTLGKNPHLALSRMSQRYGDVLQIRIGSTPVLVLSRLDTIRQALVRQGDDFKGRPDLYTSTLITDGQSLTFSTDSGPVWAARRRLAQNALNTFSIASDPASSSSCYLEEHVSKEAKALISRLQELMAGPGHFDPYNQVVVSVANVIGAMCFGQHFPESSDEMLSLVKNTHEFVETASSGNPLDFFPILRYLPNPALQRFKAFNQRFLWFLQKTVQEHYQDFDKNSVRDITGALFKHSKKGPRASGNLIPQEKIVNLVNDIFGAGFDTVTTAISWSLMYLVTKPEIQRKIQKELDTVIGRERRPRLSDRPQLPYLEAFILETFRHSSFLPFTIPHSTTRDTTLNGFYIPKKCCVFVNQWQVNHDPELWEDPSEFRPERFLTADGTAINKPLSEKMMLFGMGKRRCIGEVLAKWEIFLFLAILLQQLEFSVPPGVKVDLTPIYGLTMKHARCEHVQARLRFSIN

Sequence of Cytochrome P450 2C19 (P33261 whole entry): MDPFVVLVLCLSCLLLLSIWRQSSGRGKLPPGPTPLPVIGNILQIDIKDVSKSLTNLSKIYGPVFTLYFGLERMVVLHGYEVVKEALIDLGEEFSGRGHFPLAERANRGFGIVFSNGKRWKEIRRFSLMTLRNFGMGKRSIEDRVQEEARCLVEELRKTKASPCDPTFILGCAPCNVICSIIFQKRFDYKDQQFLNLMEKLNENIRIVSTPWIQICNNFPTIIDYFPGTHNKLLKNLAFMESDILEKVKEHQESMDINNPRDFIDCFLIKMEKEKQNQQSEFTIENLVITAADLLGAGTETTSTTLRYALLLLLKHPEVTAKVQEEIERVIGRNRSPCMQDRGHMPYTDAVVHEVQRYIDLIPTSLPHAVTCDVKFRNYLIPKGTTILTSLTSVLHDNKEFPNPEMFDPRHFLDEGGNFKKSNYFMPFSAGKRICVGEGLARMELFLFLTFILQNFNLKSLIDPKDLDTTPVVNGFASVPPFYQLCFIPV

SMILES	solubility [1]	IC50 [2]	IC50 (Cytochrome P450 2C19)	IC50 [3]	CL (Liver microsomes [4])	IC50 [5]	CL (Liver microsomes [6])	IC50 (Cytochrome P450 1A2)	Activity (HepG2)
O=C(N[C@H]1C[C@@H]1c1ccccc1)c1ccc2nonc2c1 (racemic)	< 1 µg/mL	240 nM	< 10000 nM	61.7 nM					
CC(C)c1noc(C2CCN(C(=O)N[C@H]3C[C@@H]3c3ccccc3)CC2)n1 (racemic)		13 nM							Non-toxic
Cc1nc2cc(NC(=O)N[C@H]3C[C@@H]3c3ccccc3)ccc2o1 (racemic)	< 1 µg/mL	20 nM		39.8 nM	> 100 µL/min/mg	81.3 nM	> 100 µL/min/mg		

More lines, main results first:

solubility [1]	IC50 [2]	IC50 (Cytochrome P450 2C19)	IC50 [3]	CL (Liver microsomes [4])	IC50 [5]	CL (Liver microsomes [6])	IC50 (Cytochrome P450 1A2)	SMILES	Activity (HepG2)
< 1 µg/mL	3.02 nM	< 10000 nM	6.46 nM	> 100 µL/min/mg	4.68 nM	> 100 µL/min/mg		COc1cccc2c1CC(C(=O)N[C@H]1C[C@@H]1c1ccccc1)CC2 (mixture of isomers)	
< 1 µg/mL	1.7 nM		2.29 nM	> 100 µL/min/mg	7.94 nM			O=C(NC1CCN(c2ccccc2)CC1)N[C@H]1C[C@@H]1c1ccccc1 (racemic)	
		< 10000 nM	30.2 nM	> 100 µL/min/mg			< 10000 nM	CN(C)c1ccc(CNC(=O)N[C@H]2C[C@@H]2c2ccccc2)cc1 (racemic)	
